Data set [1] in a line: Thermal transition determination via DSC, -40° C. program (procedure of Example 30). As to conditions: for T Intercept-2 / T Peak Max-2: peak 2. Format: physicochemical. The protocol:
(§1) A Tzero Hermetic pan & lid was charged with ˜10-15 mg mixed material sample described in Examples 22. A Direct Scanning Coulometer, DSC Q2000 V24.9 was used to determine thermal transitions. The following temperature profile was used to obtain the data: ambient temperature cooled to −40° C. at 20° C./min, −40° C. to 160° C. at 20° C./min. The T intercept is defined as the temperature where the extrapolated slope of the initial curve of a peak intercepts the interpolated baseline of that peak. T Peak Max is defined as the temperature at the peak (inflection point) of a given curve.
Temperature program: Ambient temperature to −40° C. at 20° C./min, −40° C. to 140° C. at 20° C./min.
(§2) The procedure of Example 30 was followed using the mixed C12-ene-NMG:C12-ene-NMX samples described in Example 24.
The procedure of Example 30 was followed using the mixed C15-ene-NMG:C15-ene-NMX samples described in Example 25. […]
The procedure of Example 30 was followed using the mixed NMHG:NMHX samples described in Example 46.
For orientation: Differential scanning calorimetry records heat flow against a reference as temperature is scanned.

For data set [2] the following is noted: literature values; cited from earlier work.
A short description of data set [3]: Thermal transition determination via DSC, -20° C. to 160° C. at 20° C./min. Format: physicochemical. As to conditions: C12-NMG:C12-NMX; for T Intercept / T Peak Max: peak 1; for T Intercept-3 / T Peak Max-3: peak 3. The protocol: as §1, with “transitions. A DSC is able to detect phase transitions within a material that might not be visible to the naked eye.” for “transitions.”, “−20°” for “−40°”
Temperature program: Ambient temperature to −20° C. at 20° C./min, −20° C. to 160° C. at 20° C./min.

A short description of data set [4]: Visual melting point determination (capillary melting point apparatus). Format: physicochemical. As to conditions: for Ending MP: transparent gel to liquid. An excerpt: A Kimax −51 capillary tube (size 1.5−1.8×90 mm) was charged with the mixed C12-NMG:C12-NMX samples described in Example 22 to afford ˜½ inch sample bed. A Tomas Hoover Capillary Melting Point Apparatus was used to determine melting points visually. The Starting Melting Point (MP) is defined as the temperature (° C.) when the initial white opaque solid has completed the transition to a transparent gel. The Ending Melting Point (MP) is defined as the temperature (° C.) when the transparent gel transitions to liquid.
The procedure of Example 27 was followed using the mixed C12-NMG:C12-NMGly samples described in Example 23.

Data set [5] in a line: Physical consistency of samples noted at ambient temperature. Format: physicochemical. As to conditions: when placed into DSC pan.
Description: as §2
The procedure of Example 30 was followed using the mixed C15-ene-NMG:C15-ene-NMX samples described in Example 25.
The procedure of Example 30 was followed using the mixed CCO-NMG:CCO-NMX samples described in Example 37.

A short description of data set [6]: Krafft Point analysis, Phase Technology NK60-KPA Analyzer (Diffusive Light Scattering). Format: physicochemical. As to conditions: 1 wt % solutions of C12-NMG and C12-NMX in deionized water mixed by volume.
Description: Krafft Point analysis was performed on a Phase Technology® NK60-KPA Analyzer that used a Diffusive Light Scattering (DLS) detection method. A 1 wt % solution was prepared in deionized water and 0.150 ml of this solution was added to the sample cell of the instrument at room temperature (20-25° C.). The following heating and cooling cycle was executed on the sample. Samples were warmed to 40° C. at a ramp rate of 5° C./min and held for 30 seconds. Next, Samples were cooled to −20° C. at a rate of −10° C./min and held for 60 seconds. Samples were then warmed to 0° C. at a rate of 5° C./min, held for 0 seconds, warmed to 30° C. at a rate of 2° C./min, held for 0 seconds and lastly warmed to 40° C. at a rate of 5° C./min.
Data was recorded as crystal count (y-axis) versus temperature (x-axis). […] During final warming cycle, when crystal count returned to original baseline, the temperature at that point was recorded as the Krafft point.
(§3) 1 wt % solutions of each of the materials in the table below were tested. […] A volume of 0.150 mL of this mixture was then analyzed via the Phase Technology® NK60-KPA Analyzer.
as §3
Where [7] appears, read: C12-NMG:C12-NMGly blends by weight.
Setting [8] is: C12-NMG:C12-NMX blends by weight.
The mark [9] stands for this setting: C12-NMG:C12-NMX blends by weight, white opaque solid to transparent gel.
[10] abbreviates: C12-ene-NMG:C12-ene-NMX, peak 1, ** = No peak was observed.
Where [11] appears, read: C15-ene-NMG:C15-ene-NMX, peak 1, ** = No peak was observed.

Consider `CCCCCCCCCCCC(=O)N(C)C[C@H](O)[C@@H](O)[C@H](O)[C@H](O)CO` [Example C12-NMG, N-Dodecanoyl-N-Methylglucamine], for which, in data set [1] (C12-NMG:C12-NMGly, peak 1), the “T Intercept” value is 82.0 °C and the “T Peak Max” value came to 94.7 °C. Also, the “T Intercept-2” value in data set [1] (C12-NMG:C12-NMGly) came out at 137.0 °C. The “initial melting point (Zhu et al)” value in data set [2] is 90.5-91.5 °C. Also, in data set [3], the “T Intercept” value is 84.1 °C, the “T Peak Max” value is 94.7 °C, the “T Intercept-3” value stood at 136.7 °C and the “T Peak Max-3” value came out at 137.9 °C. For the same compound, in data set [4] (setting [7]), the “Ending PM” value came out at 127.2 °C and the “Starting MP” value came out at 96.8 °C. The “Ending MP” value in data set [4] (setting [8]) worked out at 129.8 °C. Further, the “Starting MP” value in data set [4] (setting [9]) worked out at 96 °C.

On to `CCCCCCCCCCCC(=O)N(C)CC(O)CO` (centres unmarked) [Example C12-NMGly, N-Dodecanoyl-(3-methylamino-1,2-propanediol)], for which, in data set [1] (C12-NMG:C12-NMGly, peak 1), the “T Intercept” value was 44.5 °C and the “T Peak Max” value amounted to 49.6 °C. Also, the “T Intercept-2” value in data set [1] (C12-NMG:C12-NMGly) was 117.2 °C. In addition, in data set [2], the “initial melting point (Zhu et al)” value is 40-40.5 °C. Further, in data set [4] (setting [7]), the “Ending PM” value is 52.8 °C and the “Starting MP” value was determined as 46.3 °C.

As for `CCCCCCCCCCCC(=O)N(C)CC(O)C(O)C(O)CO` (centres unmarked) [Example C12-NMX, N-Dodecanoyl-N-Methylxylamine], in data set [2], the “initial melting point (Zhu et al)” value was 74-75 °C. In addition, in data set [3], the “T Intercept” value was 69.7 °C, the “T Peak Max” value was determined as 77.0 °C, the “T Intercept-3” value worked out at 95.6 °C and the “T Peak Max-3” value was 97.2 °C. For the same compound, the “Ending MP” value in data set [4] (setting [8]) turned out to be 96.6 °C. Further, the “Starting MP” value in data set [4] (setting [9]) stood at 76 °C.

In the case of `CCC=CCCCCCCCC(=O)N(C)C[C@H](O)[C@@H](O)[C@H](O)[C@H](O)CO` [Example C12-ene-NMG, N-(9-Dodecenoyl)-N-Methylglucamine], in data set [1] (setting [10]), the “T Intercept” value stood at 67.0 °C and the “T Peak Max” value was 78.7 °C. Besides, in data set [1] (C12-ene-NMG:C12-ene-NMX), the “T Intercept-2” value was found to be 106.1 °C and the “T Peak Max-2” value is 108.5 °C. In addition, the “physical consistency of sample” value in data set [5] is on record as “powders”.

For the compound `CCC=CCCCCCCCC(=O)N(C)CC(O)C(O)C(O)CO` (centres unmarked) [Example C12-ene-NMX, N-(9-Dodecenoyl)-N-Methylxylamine], in data set [1] (setting [10]), the “T Intercept” value worked out at 26.0 °C and the “T Peak Max” value turned out to be 28.6 °C. Further, in data set [1] (C12-ene-NMG:C12-ene-NMX), the “T Intercept-2” value amounted to 86.2 °C and the “T Peak Max-2” value came to 89.5 °C. Moreover, the “physical consistency of sample” value in data set [5] is listed as “waxy in nature”.

In the case of `CCCCCC=CCCCCCCCC(=O)N(C)C[C@H](O)[C@@H](O)[C@H](O)[C@H](O)CO` [Example C15-ene-NMG, N-(9-Pentadecenoyl)-N-Methylglucamine], in data set [1] (setting [11]), the “T Intercept” value is 64.1 °C and the “T Peak Max” value is 77.9 °C. In data set [1] (C15-ene-NMG:C15-ene-NMX), the “T Intercept-2” value turned out to be 144.6 °C and the “T Peak Max-2” value came to 146.2 °C.

Consider `CCCCCC=CCCCCCCCC(=O)N(C)CC(O)C(O)C(O)CO` (centres unmarked) [Example C15-ene-NMX, N-(9-Pentadecenoyl)-N-Methyl-Xylamine], for which, in data set [1] (setting [11]), the “T Intercept” value is 27.5 °C and the “T Peak Max” value turned out to be 38.8 °C. Also, in data set [1] (C15-ene-NMG:C15-ene-NMX), the “T Intercept-2” value turned out to be 113.0 °C and the “T Peak Max-2” value was determined as 115.5 °C. Moreover, the “physical consistency of sample” value in data set [5] is listed as “waxy in nature”.

Turning to `CCCCCCN(C)C[C@H](O)[C@@H](O)[C@H](O)CO` [NMHX, N-Methyl Hexyl Xylamine], in data set [1] (NMHG:NMHX blends by weight), the “T Intercept” value came out at 48.6 °C and the “T Peak Max” value was 52.3 °C.

As to `CCCCCCCCCCCC(=O)N(C)C[C@H](O)[C@@H](O)[C@H](O)[C@H](O)CO` [Solution 13, N-Dodecanoyl-N-Methylglucamine], the “Krafft Point” value in data set [6] stood at 37 °C.

With N-Methyl Hexyl Glucamine [NMHG], in data set [1] (NMHG:NMHX blends by weight), the “T Intercept” value stood at 73.8 °C and the “T Peak Max” value was found to be 79.0 °C.

For N-Methylglucamine [Example 1], the “Krafft Point” value in data set [6] stood at 20 °C.

The values are drawn from patent US20140255330A1, “Mixed Sugar Compositions” (THE PROCTER & GAMBLE COMPANY, priority 2013, published 2014).
